Reference: patent publication US20210221822A1, “TRICYCLIC DERIVATIVES INHIBITOR, PREPARATION METHOD, AND APPLICATIONS THEREOF” (Jiangsu Hansoh Pharmaceutical Group Co., Ltd., priority 2018, published 2021)
Like-named read-outs stand apart in the source and are kept apart here.

Assays:
[1] = Pharmacokinetic (PK) assay in mice; format: in vivo; conditions: male, Balb/c, mouse, plasma, po, single intragastric 5 mg/kg; for AUC(0-t): read-out: Area under curve AUC0-t; for AUC(0-inf): read-out: Area under curve AUC0-∞; for half-life: read-out: Half-life t1/2(h) (converted); for MRT: read-out: Mean residence time MRT; for Tmax: read-out: Peak time tmax; for Cmax: read-out: Plasma concentration Cmax
Description: The pharmacokinetic assay of the preferred compounds of the examples of the present invention in mice was carried out in Balb/c male mice (Shanghai Jiesijie Laboratory Animal Co., LTD). • Administration mode: single intragastric administration. • Administration dose: 5 mg/10 ml/kg (body weight). • Formulation: the compound was dissolved in 0.5% CMC-Na by ultrasound to obtain a clear solution or homogeneous suspension. • Sampling points: 0.5, 1, 2, 4, 6, 8 and 24 hours after administration. • Sample process: • 1) 0.1 mL of blood was taken from the orbit, placed in a K2-EDTA tube, and centrifuged for 5 to 20 minutes at room temperature at 1000 to 3000×g to separate the plasma, which was then stored at −80° C. • 2) 160 uL of acetonitrile was added to 40 uL of plasma sample for precipitation, and then the mixture was centrifuged for 5 to 20 minutes at 500 to 2000×g. • 3) 100 uL of processed supernatant was taken and analyzed by LC/MS/MS assay to determine the concentration of the test compound. • LC-MS/MS assay: • Liquid chromatography condition: Shimadzu LC-20AD pump • Mass spectrometry condition: AB Sciex API 4000 mass spectrometer • Chromatographic column: phenomenex Gemiu 5 μm C18 50×4.6 mm • Mobile phase: solution A was 0.1% aqueous formic acid solution, and solution B was acetonitrile • Flow rate: 0.8 mL/min • Elution time: 0-4 minutes gradient elution • Pharmacokinetics: […]
The main parameters were calculated using WinNonlin 6.1.

[2] = biological target: T1, PI3Kγ (Homo sapiens, UniProt P48736); assay: ADP-Glo lipid kinase assay, PI3Kγ kinase activity; format: biochemical; conditions: 0.4 nM enzyme, 120 min, 50 μM ATP
T1 construct: purchased Thermofisher PV4786
T1 sequence (P48736 whole entry): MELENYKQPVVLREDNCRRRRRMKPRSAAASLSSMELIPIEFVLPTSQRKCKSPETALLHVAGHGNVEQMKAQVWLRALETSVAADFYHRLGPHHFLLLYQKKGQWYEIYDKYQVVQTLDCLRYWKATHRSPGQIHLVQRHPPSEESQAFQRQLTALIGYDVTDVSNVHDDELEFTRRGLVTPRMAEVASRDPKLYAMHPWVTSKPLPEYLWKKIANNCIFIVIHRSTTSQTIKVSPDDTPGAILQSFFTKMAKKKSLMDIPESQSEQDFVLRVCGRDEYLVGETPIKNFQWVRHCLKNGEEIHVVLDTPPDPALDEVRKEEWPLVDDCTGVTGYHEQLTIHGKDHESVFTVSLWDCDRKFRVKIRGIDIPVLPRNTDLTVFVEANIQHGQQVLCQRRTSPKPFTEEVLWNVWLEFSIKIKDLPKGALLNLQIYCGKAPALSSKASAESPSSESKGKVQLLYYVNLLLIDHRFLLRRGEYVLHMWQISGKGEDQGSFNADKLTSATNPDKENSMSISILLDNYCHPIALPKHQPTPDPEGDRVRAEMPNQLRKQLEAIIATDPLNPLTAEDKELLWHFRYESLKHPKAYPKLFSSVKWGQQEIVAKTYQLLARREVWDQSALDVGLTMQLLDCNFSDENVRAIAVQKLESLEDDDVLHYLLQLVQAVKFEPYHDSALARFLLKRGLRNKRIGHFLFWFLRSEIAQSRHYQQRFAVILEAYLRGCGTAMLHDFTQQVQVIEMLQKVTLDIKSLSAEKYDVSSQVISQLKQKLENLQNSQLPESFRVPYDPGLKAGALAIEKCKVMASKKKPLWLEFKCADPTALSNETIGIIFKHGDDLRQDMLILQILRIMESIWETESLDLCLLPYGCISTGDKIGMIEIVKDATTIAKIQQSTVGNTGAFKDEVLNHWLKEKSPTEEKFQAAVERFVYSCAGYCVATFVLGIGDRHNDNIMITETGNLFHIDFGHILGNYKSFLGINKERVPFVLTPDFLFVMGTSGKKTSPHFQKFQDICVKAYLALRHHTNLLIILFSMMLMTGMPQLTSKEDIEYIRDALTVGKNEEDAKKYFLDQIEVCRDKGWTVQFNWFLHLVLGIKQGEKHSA
Description: (§1) Experimental method: Promega's ADP-Glo lipid kinase assay method (Promega #V9102) was applied in this experiment. Lipid kinase PI3Kα/β/γ/δ catalyzed the generation of ADP from ATP in the presence of the substrate PIP2: 3PS and ATP. The lipid kinase activity was characterized by measuring the ADP content in the reaction, and the half inhibitory concentration IC50 of the compound on inhibiting PI3Kα/β/γ/δ kinase activity was thus obtained.
(§2) The kinase reaction was carried out in a white 384-well plate (Perkin Elmer #6007299). 2 μL of the compound solution of different concentrations diluted with ddH2O containing 1% DMSO was added to each well. 2 μL of ddH2O containing 1% DMSO was added to the positive control well. 2 μL of 0.1-2 nM PI3K kinase solution diluted with 5× kinase buffer (HEPES 250 mM, MgCl2 15 mM, NaCl 250 mM, BSA 0.05%) was added to each well. 2 μL of 5× kinase buffer was added to the negative control well. 4 μL of 50 μM substrate PIP2: 3PS (Promega #V1701) formulated with 10× Dilution buffer and ddH2O was added to all wells. Finally, 2 μL of […] ATP solution diluted with water was added to start the reaction. After the reaction was carried out at room temperature for 90 to 120 minutes, 10 μL of ADP-Glo Reagent (containing 10 mM MgCl2) was added to each well, and reacted at room temperature for 60 minutes to remove excess ATP in the reaction. 20 μL of Kinase Detection Reagent was added to each well, and reacted at room temperature in the dark for 20 minutes. The chemiluminescence value was measured by the BioTek Synergy H1 microplate reader.
(§3) The percentage inhibition data of the compound-treated well was calculated through the positive control well (DMSO control well) and negative control well (no kinase added) on the plate {% inhibition rate=100−[(test compound value−negative control value)]/(positive control value−negative control value)×100}. The IC50 value was calculated by fitting the data of different concentrations and corresponding percentage inhibition rates to a four-parameter nonlinear logic formula with GraphPad prism.

[3] = biological target: T2, PI3Kβ (Homo sapiens, UniProt P42338); assay: ADP-Glo lipid kinase assay, PI3Kβ kinase activity; format: biochemical; conditions: 0.4 nM enzyme, 90 min, 100 μM ATP
T2 construct: purchased Carna 11-102
T2 sequence (P42338 whole entry): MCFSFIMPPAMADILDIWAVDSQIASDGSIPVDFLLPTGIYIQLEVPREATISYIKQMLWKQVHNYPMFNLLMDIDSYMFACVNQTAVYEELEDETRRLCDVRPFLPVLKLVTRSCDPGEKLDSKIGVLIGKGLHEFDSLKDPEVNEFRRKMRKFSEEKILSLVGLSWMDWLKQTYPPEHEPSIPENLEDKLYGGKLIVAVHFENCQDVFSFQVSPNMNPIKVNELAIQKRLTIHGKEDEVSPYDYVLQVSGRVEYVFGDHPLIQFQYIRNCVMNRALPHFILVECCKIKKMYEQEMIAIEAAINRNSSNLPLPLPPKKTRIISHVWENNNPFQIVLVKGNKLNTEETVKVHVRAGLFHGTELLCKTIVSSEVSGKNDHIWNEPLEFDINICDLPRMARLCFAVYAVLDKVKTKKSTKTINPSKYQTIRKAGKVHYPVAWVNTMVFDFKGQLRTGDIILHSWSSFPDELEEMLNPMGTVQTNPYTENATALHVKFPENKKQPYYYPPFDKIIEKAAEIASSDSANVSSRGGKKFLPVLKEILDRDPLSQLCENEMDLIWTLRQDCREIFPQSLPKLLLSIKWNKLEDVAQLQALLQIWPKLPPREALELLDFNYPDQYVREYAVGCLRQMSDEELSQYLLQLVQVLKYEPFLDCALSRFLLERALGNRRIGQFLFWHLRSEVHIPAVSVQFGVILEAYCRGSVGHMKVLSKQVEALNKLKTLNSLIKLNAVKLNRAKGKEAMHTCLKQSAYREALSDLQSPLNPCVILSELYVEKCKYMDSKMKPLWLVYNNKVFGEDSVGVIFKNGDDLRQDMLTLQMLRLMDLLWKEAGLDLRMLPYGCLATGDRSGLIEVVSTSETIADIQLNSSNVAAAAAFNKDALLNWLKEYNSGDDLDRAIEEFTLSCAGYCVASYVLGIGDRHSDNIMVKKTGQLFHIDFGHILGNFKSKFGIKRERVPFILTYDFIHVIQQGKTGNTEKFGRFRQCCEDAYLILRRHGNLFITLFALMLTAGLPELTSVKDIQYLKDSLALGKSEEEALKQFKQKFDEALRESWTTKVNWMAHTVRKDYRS
T2 sequence (P27986 whole entry partner): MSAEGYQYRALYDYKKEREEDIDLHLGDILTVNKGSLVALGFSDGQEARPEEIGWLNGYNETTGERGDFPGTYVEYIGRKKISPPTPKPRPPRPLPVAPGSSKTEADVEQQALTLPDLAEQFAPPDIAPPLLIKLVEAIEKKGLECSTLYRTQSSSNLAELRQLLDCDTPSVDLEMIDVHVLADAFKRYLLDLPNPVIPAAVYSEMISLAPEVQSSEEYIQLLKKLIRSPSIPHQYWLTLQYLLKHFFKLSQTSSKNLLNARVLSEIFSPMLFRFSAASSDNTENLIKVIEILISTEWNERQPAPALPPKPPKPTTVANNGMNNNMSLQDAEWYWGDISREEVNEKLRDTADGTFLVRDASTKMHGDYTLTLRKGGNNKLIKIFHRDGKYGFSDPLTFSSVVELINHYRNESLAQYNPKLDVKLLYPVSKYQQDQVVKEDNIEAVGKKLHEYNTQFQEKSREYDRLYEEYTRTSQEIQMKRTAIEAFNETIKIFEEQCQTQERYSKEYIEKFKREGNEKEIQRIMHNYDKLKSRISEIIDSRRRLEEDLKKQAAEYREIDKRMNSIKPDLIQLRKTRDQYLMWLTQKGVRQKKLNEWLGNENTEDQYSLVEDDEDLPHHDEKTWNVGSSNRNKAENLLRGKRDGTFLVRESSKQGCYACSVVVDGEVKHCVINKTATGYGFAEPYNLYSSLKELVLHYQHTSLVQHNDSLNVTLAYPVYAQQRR
Description: as §1, §2, §3

[4] = biological target: T3, PI3Kδ (Homo sapiens, UniProt O00329); assay: ADP-Glo lipid kinase assay, PI3Kδ kinase activity; format: biochemical; conditions: 0.1 nM enzyme, 90 min, 100 μM ATP
T3 construct: purchased Carna 11-103
T3 sequence (O00329 whole entry): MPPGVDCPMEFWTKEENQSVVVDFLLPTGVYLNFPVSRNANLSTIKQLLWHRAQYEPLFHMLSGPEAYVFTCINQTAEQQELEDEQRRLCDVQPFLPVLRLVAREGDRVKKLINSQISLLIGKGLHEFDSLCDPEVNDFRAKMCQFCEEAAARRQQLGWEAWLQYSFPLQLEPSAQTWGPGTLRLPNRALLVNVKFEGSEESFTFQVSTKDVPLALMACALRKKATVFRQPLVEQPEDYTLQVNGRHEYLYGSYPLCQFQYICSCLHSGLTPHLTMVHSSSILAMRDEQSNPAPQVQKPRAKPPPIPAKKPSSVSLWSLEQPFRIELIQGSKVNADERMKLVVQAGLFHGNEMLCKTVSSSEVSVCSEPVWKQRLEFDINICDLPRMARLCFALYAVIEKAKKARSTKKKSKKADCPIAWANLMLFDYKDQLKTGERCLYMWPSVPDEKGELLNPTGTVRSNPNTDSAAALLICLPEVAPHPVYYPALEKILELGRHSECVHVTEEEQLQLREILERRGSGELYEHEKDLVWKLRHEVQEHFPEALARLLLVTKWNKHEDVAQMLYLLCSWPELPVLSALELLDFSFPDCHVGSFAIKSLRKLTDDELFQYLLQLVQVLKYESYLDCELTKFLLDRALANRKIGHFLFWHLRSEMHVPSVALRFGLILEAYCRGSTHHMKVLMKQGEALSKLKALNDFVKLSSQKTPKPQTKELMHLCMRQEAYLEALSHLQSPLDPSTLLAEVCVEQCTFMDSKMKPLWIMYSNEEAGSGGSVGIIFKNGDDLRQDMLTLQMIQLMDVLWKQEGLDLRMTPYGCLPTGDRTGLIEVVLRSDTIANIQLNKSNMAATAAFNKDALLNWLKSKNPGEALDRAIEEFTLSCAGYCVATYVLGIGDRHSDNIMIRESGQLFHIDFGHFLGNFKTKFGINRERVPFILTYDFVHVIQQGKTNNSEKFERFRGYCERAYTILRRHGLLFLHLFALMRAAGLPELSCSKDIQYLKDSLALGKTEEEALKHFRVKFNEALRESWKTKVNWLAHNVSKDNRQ
T3 sequence (P27986 whole entry partner): as the sequence (P27986 whole entry partner) above
Description: as §1, §2, §3

[5] = biological target: T4, PI3Kα (Homo sapiens, UniProt P42336); assay: ADP-Glo lipid kinase assay, PI3Kα kinase activity; format: biochemical; conditions: ADP-Glo; 0.1 nM enzyme, 120 min, 50 μM ATP
T4 construct: purchased Promega V1721
T4 sequence (P42336 whole entry): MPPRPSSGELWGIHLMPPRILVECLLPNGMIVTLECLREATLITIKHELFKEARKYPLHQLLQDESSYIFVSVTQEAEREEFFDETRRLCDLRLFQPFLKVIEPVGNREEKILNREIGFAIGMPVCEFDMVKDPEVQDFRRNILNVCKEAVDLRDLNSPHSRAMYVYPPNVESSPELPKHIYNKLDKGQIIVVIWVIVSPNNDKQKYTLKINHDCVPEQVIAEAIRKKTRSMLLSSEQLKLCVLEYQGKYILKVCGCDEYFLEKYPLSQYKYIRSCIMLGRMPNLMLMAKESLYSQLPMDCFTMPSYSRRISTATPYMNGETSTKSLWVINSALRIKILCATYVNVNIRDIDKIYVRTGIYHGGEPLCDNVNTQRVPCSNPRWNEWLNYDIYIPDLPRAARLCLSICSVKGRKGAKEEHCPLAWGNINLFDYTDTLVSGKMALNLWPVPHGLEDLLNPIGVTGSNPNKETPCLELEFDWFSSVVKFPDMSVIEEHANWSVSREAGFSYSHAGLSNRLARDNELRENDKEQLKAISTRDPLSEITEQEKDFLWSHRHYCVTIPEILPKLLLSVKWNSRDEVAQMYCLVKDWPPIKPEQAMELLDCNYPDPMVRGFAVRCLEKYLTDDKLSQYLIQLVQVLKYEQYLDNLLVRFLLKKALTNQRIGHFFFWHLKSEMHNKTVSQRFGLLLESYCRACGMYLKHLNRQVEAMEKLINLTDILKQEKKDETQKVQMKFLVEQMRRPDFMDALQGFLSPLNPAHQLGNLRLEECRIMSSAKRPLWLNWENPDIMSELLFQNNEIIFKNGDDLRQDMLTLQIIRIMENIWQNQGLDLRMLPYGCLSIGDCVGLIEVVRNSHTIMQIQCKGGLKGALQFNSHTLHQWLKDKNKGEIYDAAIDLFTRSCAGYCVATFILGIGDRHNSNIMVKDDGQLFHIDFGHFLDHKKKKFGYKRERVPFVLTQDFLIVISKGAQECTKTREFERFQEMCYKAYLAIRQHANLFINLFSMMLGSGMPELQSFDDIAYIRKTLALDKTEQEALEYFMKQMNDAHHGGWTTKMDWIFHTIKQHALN
T4 sequence (P27986 whole entry partner): as the sequence (P27986 whole entry partner) above
Description: as §1, §2, §3

[6] = Toxicokinetics in the 7-day repeated intragastric administration study in SD rats; format: in vivo, Sprague-Dawley (SD) rats; conditions: Sprague-Dawley, rat, plasma, po, read-out: average system exposure AUC
Source text: Liquid chromatography−mass spectrometry (detector: API4000, electrospray source (ESI) positive ion mode, column: Agilent ZORBAX XDB-C18 (3.5 μm, 2.1×50 mm)), which was used for the biological analysis of plasma sample.
(§4) 1) In the experiment, 112 rats (56 rats/sex) were divided into 14 groups by sex and body weight, wherein 70 rats were used for toxicology study (groups 1 to 7, 5 rats/sex/group) and 42 rats were used for toxicokinetics study (groups 8 to 14, 3 rats/sex/group).
(§5) 3) The animals in groups 2 and 9, groups 3 and 10, and groups 4 and 11 were intragastrically administered GDC-0077 at 10, 30 and 60 mg/kg, respectively.
(§6) 4) The animals in groups 5 and 12, groups 6 and 13, and groups 7 and 14 were intragastrically administered the compound of Example 51 at 10, 30 and 60 mg/kg, respectively.
(§7) 5) The animals were administered once a day for 7 consecutive days (the animals in groups 7 and 14 were administered for 6 consecutive days).
(§8) 7) During the experiment, items such as clinical observation, body weight, food intake, clinicopathological indicators (blood cell count, coagulation function, blood biochemistry), toxicokinetics and the like were studied.

[7] = Toxicity test of a 7-day repeatedly intragastric administration in SD rats; format: in vivo
Source text: as §4
2) As the vehicle control group, the animals in groups 1 and 8 were intragastrically administered 20% aqueous SBE-(3-CD (Captisol) solution.
as §5, §6, §7
6) The administration volume was 10 mL/kg.
as §8
8) All animals were euthanized on Day 8 (the animals in groups 7 and 14 were euthanized after administration on Day 6).
9) During the experiment, gross anatomy observation was carried out on animals in groups 1 to 7, animals in group 14 and dead animals (including animals in toxicokinetics study), and histopathological examination was carried out on abnormal tissues, gastrointestinal tissues (such as colon and cecum) and immune tissues (such as thymus).

[8] = SD rats, 10, 30 and 60 mg/kg (low, middle, high dose)

Row | AUC(0-t) [1] [ng·h/mL] | AUC(0-inf) [1] [ng·h/mL] | half-life [1] [h] | MRT [1] [h] | Tmax [1] [h] | Cmax [1] [ng/mL] | IC50 [2] [nM] | IC50 [3] [nM] | IC50 [4] [nM] | IC50 [5] [nM] | SMILES | also measured
1 | 13700 | 13700 | 2.8 | 3.7 | 0.5 | 4020 | 376 | 754 | 139 | 1 | COC[C@H](Nc1ccc2c(c1)OCCn1cc(N3C(=O)SC[C@H]3C(F)F)nc1-2)C(N)=O [Example 110, (S)-2-((2-((R)-4-(difluoromethyl)-2-oxothiazolidin-3-yl)-5,6-dihydrobenzo[f]imidazo[1,2-d][1,4]oxazepin-9-yl)amino)-3-methoxypropanamide] | 
2 | 1740 | 1740 | 2.8 | 3.9 | 0.5 | 466 | 736 | 1230 | 125 | 2.9 | NC(=O)[C@@H]1CCCN1c1ccc2c(c1)OCCn1cc(N3C(=O)SC[C@H]3C(F)F)nc1-2 [Example 111, (S)-1-(2-((R)-4-(difluoromethyl)-2-oxothiazolidin-3-yl)-5,6-dihydrobenzo[f]imidazo[1,2-d][1,4]oxazepin-9-yl)pyrrolidine-2-carboxamide] | 

More lines, now with the values behind:

Row | SMILES | AUC(0-t) [1] [ng·h/mL] | AUC(0-inf) [1] [ng·h/mL] | half-life [1] [h] | MRT [1] [h] | Tmax [1] [h] | Cmax [1] [ng/mL] | IC50 [2] [nM] | IC50 [3] [nM] | IC50 [4] [nM] | IC50 [5] [nM] | also measured
3 | C[C@H](Nc1ccc2c(c1)OCCn1cc(N3C(=O)O[C@H](C)[C@H]3C(F)F)nc1-2)C(N)=O [Example 54, (S)-2-((2-((4S,5R)-4-(difluoromethyl)-5-methyl-2-oxooxazolidin-3-yl)-5,6-dihydrobenzo[f]imidazo[1,2-d][1,4]oxazepin-9-yl)amino)propanamide] | 1560 | 1620 | 1.8 | 2 | 1 | 832 | 481 | 1800 | 336 | 1.2 | 
4 | C[C@H](Nc1ccc2c(c1F)OCCn1cc(N3C(=O)OC[C@H]3C(F)F)nc1-2)C(N)=O [Example 77, (S)-2-((2-((S)-4-(Difluoromethyl)-2-oxooxazolidin-3-yl)-8-fluoro-5,6-dihydrobenzo[f]imidazo[1,2-d][1,4]oxazepin-9-yl)amino)propanamide] | 4090 | 4120 | 1.2 | 1.7 | 0.5 | 2300 | 450 | 924 | 306 | 5.2 | 
5 | C[C@H](Nc1ccc2c(c1F)OCCn1cc(N3C(=O)SC[C@H]3C(F)F)nc1-2)C(N)=O [Example 108, (S)-2-((2-((R)-4-(difluoromethyl)-2-oxothiazolidin-3-yl)-8-fluoro-5,6-dihydrobenzo[f]imidazo[1,2-d][1,4]oxazepin-9-yl)amino)propanamide] | 4240 | 4240 | 2 | 3.4 | 0.5 | 1230 | 247 | 472 | 194 | 2.4 | 
6 | C[C@H](Nc1ccc2c(c1)OCCn1cc(N3C(=O)OC[C@H]3C(F)F)nc1-2)C(N)=O [GDC-0077, reference compound] |  |  |  |  |  |  |  |  |  |  | AUC ([6]; 10 mg/kg intragastric once a day, after the last administration, female): 2250 ng·h/mL; AUC ([6]; 10 mg/kg intragastric once a day, after the last administration, male): 845 ng·h/mL; AUC ([6]; 30 mg/kg intragastric once a day, after the last administration, female): 6510 ng·h/mL; AUC ([6]; 30 mg/kg intragastric once a day, after the last administration, male): 3000 ng·h/mL; AUC ([6]; 60 mg/kg intragastric, after the first administration, female): 22800 ng·h/mL; AUC ([6]; 60 mg/kg intragastric, after the first administration, male): 15400 ng·h/mL; main target organs of the toxicity ([7]; SD rats): gastrointestinal tissues (such as stomach and cecum) and immune tissues (such as thymus); Blood cell counting and coagulation function ([7]; SD rats, 10, 30 and 60 mg/kg): In each dose group, Retic decreased in both male and female animals; Pathology, pathological changes under the microscope ([7]; SD rats, 10, 30 and 60 mg/kg): atrophy of goblet cells in the cecal mucosa, increase in thymic tingible body macrophages, and erosion, bleeding and edema of gastric mucosal; Body weight and food intake [7, 8]: In the middle-dose and high-dose groups, the final body weight of all animals declined, and their food intake also declined during the same period; Clinical observation [7, 8]: In the high-dose group, abnormal symptoms such as arched back, loose stools, perianal contamination and fluffy coat were observed; Near-death/death ([7]; SD rats, dose of 60 mg/kg): near-dead/dead animals were found; lethal dose ([7]; SD rats, intragastric once/day for 7 days): 60 mg/kg; MTD at 7 days ([7]; both sexes, Sprague-Dawley, rat, in vivo, po, SD rats, intragastric once/day for 7 days, read-out: maximum tolerated dose (MTD)): 30 mg/kg
